# Entries after “also recorded” stand apart in the source; their conditions may differ.
# Columns and labels:
# [1] = tested on: peripheral blood lymphocyte (PBL) counts; assay: Phase 1 single dosing study: peripheral blood lymphocyte counts; assay type: in vivo, human
# Description: Compound 1 was administered as the L-arginine salt.
# There were no other clinically significant safety issues with respect to vital signs, ECGs, pulmonary function tests, ophthalmoscopy, or clinical laboratory tests with the exception of expected pharmacological effects on peripheral blood lymphocyte counts. Dosing at the 3 and 5 mg induced a dose responsive decline in the absolute number of peripheral blood B cells, T cells, NK cells, and all T cell subsets except TEM cells. Total peripheral blood lymphocyte (PBL) counts were reduced by 2-4 hours after dosing, reaching a nadir by hour 8 which persisted for 24 hours with recovery to baseline over the next 4 days. PBL counts were reduced by ˜40% and ˜55% at the 3 mg and 5 mg dose levels. […] These findings are therefore consistent with the anticipated pharmacodynamic effects of S1P receptor agonists in preclinical studies and in humans (Gergely et al., Br Pharmacol 167(5):1035-1047, 2012; Brossard et al., Br J Clin Pharmacol 2013 April 18. doi:10.1111/bcp.12129. [Epub ahead of print] PubMed PMID: 23594176, and Kovarik et al., J Clin Pharmacol 44(5):532-537, 2004.)
# [2] = tested on: CYP1A2 mRNA; assay: CYP induction in cultured human hepatocytes; assay type: in vitro ADME; conditions: up to 10 μM
# [3] = Phase 1 single dosing study: safety and tolerability
# [4] = target: T1, OCT1 (Homo sapiens, UniProt O15245); assay: Transporter inhibition, HEK293 cells; assay type: in vitro ADME
# T1 construct: expressed in transfected cells; host or cells: HEK293
# T1 sequence (O15245 1-554): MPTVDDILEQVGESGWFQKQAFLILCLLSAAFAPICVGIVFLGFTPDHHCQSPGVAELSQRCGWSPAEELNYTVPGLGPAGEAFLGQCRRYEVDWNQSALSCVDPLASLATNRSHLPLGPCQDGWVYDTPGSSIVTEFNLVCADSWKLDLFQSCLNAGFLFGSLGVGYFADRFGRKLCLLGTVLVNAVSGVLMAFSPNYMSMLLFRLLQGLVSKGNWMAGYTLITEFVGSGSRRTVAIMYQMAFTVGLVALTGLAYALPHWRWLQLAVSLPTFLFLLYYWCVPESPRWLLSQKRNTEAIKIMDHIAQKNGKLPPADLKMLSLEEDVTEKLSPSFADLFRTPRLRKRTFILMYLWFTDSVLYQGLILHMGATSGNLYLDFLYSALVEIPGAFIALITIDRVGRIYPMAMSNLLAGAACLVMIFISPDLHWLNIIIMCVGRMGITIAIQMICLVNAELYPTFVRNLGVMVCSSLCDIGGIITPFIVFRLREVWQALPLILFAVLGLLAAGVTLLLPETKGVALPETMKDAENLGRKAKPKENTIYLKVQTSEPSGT
# [5] = target: T2, OAT3 (Homo sapiens, UniProt Q8TCC7); assay: Transporter substrate evaluation, HEK293 cells; assay type: in vitro ADME; conditions: 1 and 10 μM
# T2 construct: expressed in transfected cells; host or cells: HEK293
# T2 sequence (Q8TCC7 1-542): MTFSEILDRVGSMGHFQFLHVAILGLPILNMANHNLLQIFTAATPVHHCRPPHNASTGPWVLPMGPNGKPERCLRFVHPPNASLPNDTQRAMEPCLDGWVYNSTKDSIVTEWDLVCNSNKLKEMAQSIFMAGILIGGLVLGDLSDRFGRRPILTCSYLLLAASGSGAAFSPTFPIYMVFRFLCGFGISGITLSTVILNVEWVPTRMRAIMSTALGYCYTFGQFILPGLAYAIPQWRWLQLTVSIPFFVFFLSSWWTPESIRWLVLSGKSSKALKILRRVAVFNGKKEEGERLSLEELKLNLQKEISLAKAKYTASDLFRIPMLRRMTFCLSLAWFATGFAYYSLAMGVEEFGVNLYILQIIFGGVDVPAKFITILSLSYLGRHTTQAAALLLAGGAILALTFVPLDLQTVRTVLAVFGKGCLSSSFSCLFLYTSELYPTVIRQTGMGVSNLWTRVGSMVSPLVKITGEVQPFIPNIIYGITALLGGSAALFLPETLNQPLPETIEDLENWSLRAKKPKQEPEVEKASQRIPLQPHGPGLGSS
# [6] = in vivo
# [7] = target: T3, BCRP (Homo sapiens, UniProt Q9UNQ0); assay: Transporter inhibition, MDCKII-BCRP cells; assay type: in vitro ADME
# T3 sequence (Q9UNQ0 1-655): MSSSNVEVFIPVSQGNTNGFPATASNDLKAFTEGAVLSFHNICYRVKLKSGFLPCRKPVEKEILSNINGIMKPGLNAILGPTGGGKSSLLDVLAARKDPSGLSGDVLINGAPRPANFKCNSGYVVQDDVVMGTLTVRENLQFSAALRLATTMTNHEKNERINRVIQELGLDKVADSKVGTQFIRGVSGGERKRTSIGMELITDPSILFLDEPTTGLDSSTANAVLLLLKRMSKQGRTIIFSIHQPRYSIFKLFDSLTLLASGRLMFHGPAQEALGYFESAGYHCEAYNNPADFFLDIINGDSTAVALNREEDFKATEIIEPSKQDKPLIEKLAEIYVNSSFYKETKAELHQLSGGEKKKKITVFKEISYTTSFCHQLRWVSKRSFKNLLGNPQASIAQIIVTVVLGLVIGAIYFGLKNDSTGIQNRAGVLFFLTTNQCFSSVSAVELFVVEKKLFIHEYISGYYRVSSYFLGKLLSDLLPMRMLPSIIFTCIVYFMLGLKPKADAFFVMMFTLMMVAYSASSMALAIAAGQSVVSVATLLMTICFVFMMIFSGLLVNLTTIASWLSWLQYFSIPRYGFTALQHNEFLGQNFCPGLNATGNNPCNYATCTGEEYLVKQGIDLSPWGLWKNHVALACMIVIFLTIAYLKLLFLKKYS
# [8] = target: T1, OCT1; assay: Transporter substrate evaluation, HEK293 cells; assay type: in vitro ADME; conditions: 1 and 10 μM
# [9] = target: T4, MATE2-K (Homo sapiens, UniProt Q86VL8); assay: Transporter inhibition, HEK293 cells; assay type: in vitro ADME
# T4 construct: expressed in transfected cells; host or cells: HEK293
# T4 sequence (Q86VL8 1-566 isoform Q86VL8-3): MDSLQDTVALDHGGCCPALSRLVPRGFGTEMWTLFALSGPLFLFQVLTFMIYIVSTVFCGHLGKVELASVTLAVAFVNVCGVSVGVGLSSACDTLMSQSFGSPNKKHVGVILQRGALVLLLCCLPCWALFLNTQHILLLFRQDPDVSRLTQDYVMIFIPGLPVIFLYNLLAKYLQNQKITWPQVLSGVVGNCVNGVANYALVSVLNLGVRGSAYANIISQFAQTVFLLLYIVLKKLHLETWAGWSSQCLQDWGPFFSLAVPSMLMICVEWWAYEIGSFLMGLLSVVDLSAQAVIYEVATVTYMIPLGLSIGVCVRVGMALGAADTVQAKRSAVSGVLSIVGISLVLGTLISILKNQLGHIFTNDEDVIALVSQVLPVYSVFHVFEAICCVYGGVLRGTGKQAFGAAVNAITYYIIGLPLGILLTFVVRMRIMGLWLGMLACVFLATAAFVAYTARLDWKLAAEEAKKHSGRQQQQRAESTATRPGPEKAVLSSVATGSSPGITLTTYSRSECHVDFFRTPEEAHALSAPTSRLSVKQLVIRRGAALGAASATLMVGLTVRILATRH
# [10] = tested on: CYP2B6; assay: CYP induction in cultured human hepatocytes; assay type: in vitro ADME; conditions: criteria >2-fold mRNA increase and ≥20% of positive control
smiles,measurement,setting,value
"O=C(O)C[C@H]1CCc2c1[nH]c1ccc(OCc3ccc(C4CCCC4)c(C(F)(F)F)c3)cc21 [Compound 1, (R)-2-(7-(4-cyclopentyl-3-(trifluoromethyl)benzyloxy)-1,2,3,4-tetrahydrocyclopenta[b]indol-3-yl)acetic acid]",Reduction of PBL counts,[1]; 3 mg single dose,~40%
same,Reduction of PBL counts,[1]; 5 mg single dose,~55%
same,Time after dosing by which total PBL counts were reduced,[1]; 3 and 5 mg,2 to 4 h
same,Time of PBL nadir,"[1]; 3 and 5 mg, persisted for 24 hours",≤ 8 h
same,Recovery of PBL counts to baseline,[1]; after nadir,4 days
same,Induction potential on CYP1A2 mRNA,[2],no induction potential; also recorded: not a potential inducer
same,Deaths or serious adverse events,[3]; single doses 0.1 to 5 mg,no deaths or serious adverse events
same,Maximum tolerated dose,"[3]; single dosing, L-arginine salt",3 mg
same,Reduction of uptake rate of tetraethylammonium bromide into OCT1-expressing cells (inhibition),[4]; 1 and 10 μM,less than 50%
same,IC50,"[4]; HEK293 cells, [14C]-tetraethylammonium bromide (5 μM), 1 and 10 μM tested",> 10 µM
same,Potential substrate of OAT3,[5]; HEK293 cells,not a substrate of OAT3 and not a substrate and No
same,Uptake ratio into OAT3-expressing cells,[5]; absence and presence of probenecid (100 μM),below two
same,Gender difference in mean plasma concentrations and exposure parameters,[6],only moderately higher in females compared to males
same,Reduction of corrected efflux ratio of prazosin (1 μM) across MDCKII-BCRP cells,"[7]; 10 and 100 μM, post-assay TEER below acceptance criteria",more than 50%
same,IC50,"[7]; MDCKII-BCRP cells, prazosin (1 μM), 0.03 to 30 μM",35.7 µM
same,Potential substrate of OCT1,[8]; HEK293 cells,not a substrate of OCT1 and not a substrate and No
same,Uptake ratio into OCT1-expressing cells,[8]; absence and presence of quinidine (100 μM),below two
same,IC50,"[9]; HEK293 cells, [14C]-metformin (10 μM), 1 and 10 μM tested",> 10 µM
same,Inhibition of MATE2-K,[9]; up to 10 μM,less than 50%
same,Induction potential for CYP2B6,[10],no induction potential; also recorded: not a potential inducer
